The target in data set [1] is T1, CYP1A2 (Homo sapiens, UniProt P05177).
T1 sequence (P05177 whole entry): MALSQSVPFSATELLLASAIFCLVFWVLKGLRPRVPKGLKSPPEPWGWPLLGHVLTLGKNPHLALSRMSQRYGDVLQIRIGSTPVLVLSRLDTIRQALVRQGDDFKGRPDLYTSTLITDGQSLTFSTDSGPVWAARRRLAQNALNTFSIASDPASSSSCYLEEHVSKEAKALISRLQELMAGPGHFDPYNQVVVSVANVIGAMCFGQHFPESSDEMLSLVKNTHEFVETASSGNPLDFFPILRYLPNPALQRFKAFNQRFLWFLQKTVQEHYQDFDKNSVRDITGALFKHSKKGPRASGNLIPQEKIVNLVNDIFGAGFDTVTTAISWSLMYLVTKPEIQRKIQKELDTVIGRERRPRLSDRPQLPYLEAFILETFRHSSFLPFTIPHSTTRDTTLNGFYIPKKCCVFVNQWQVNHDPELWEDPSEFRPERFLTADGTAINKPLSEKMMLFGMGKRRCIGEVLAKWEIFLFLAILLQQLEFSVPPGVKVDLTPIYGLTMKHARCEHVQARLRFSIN
As to the kind of experiment: Inhibition of CYP1A2 (unknown origin) assessed as enzyme activity at 10 uM relative to control. It counts as ADME. On the set-up: scale not given: the % may be the effect or the level left. To be noted: read-out: Activity.

The target in data set [2] is CYP3A4 (Homo sapiens, UniProt P08684). The data set can be described thus: Inhibition of CYP3A4 (unknown origin) assessed as enzyme activity at 10 uM relative to control. To be noted: read-out: Activity. On the set-up: scale not given: the % may be the effect or the level left. It counts as ADME.
CYP3A4, sequence (P08684 whole entry): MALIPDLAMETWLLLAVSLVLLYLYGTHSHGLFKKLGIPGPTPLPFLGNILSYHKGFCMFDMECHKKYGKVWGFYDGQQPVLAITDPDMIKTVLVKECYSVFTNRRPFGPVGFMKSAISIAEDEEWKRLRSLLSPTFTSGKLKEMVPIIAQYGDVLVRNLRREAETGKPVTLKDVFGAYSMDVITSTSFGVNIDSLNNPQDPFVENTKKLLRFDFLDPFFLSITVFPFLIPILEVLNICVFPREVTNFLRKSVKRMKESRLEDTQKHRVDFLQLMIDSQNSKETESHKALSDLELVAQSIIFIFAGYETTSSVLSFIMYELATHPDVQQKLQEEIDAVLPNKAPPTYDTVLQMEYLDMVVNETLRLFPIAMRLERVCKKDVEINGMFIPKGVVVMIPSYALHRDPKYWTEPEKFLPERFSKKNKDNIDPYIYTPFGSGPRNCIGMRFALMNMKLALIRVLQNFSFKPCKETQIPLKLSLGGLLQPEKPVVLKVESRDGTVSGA
The target in data set [3] is CYP2C9 (Homo sapiens, UniProt P11712). As to the kind of experiment: Inhibition of CYP2C9 (unknown origin) assessed as enzyme activity at 10 uM relative to control. It counts as ADME. Further details: scale not given: the % may be the effect or the level left. Particulars: read-out: Activity.
CYP2C9, sequence (P11712 whole entry): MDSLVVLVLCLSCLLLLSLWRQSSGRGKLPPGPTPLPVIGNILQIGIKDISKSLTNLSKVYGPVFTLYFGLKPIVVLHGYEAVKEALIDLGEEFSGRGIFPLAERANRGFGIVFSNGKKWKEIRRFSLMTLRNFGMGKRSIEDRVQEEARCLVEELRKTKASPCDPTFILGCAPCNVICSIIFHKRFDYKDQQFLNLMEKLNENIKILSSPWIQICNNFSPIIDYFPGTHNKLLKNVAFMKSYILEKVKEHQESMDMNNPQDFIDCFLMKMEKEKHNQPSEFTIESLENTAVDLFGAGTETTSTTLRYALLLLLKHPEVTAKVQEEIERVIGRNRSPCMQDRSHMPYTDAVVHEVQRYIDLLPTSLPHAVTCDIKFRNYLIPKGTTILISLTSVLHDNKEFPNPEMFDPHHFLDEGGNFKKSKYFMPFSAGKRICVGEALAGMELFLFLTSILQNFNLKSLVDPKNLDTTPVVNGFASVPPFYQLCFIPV
The target of data set [4] is CYP2C19 (Homo sapiens, UniProt P33261). As to the kind of experiment: Inhibition of CYP2C19 (unknown origin) assessed as enzyme activity at 10 uM relative to control. It counts as ADME. Further details: scale not given: the % may be the effect or the level left. To be noted: read-out: Activity.
CYP2C19, sequence (P33261 whole entry): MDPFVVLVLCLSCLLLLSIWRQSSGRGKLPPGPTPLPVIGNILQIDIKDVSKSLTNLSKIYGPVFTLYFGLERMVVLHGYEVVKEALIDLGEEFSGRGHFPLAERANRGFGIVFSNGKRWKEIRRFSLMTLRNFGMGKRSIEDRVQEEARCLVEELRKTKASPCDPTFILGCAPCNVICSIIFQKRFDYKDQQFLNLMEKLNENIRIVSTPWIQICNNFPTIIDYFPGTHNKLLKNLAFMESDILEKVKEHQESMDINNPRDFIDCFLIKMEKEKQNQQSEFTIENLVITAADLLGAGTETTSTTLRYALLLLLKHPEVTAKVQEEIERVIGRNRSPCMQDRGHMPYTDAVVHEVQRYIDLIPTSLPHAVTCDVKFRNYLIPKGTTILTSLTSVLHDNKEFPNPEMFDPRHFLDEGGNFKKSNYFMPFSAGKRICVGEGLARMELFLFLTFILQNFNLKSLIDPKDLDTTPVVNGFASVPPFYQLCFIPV
Data set [5] deals with CYP2D6 (Homo sapiens, UniProt P10635). The data set can be described thus: Inhibition of CYP2D6 (unknown origin) assessed as enzyme activity at 10 uM relative to control. It counts as ADME. Further details: scale not given: the % may be the effect or the level left. Particulars: read-out: Activity.
CYP2D6, sequence (P10635 whole entry): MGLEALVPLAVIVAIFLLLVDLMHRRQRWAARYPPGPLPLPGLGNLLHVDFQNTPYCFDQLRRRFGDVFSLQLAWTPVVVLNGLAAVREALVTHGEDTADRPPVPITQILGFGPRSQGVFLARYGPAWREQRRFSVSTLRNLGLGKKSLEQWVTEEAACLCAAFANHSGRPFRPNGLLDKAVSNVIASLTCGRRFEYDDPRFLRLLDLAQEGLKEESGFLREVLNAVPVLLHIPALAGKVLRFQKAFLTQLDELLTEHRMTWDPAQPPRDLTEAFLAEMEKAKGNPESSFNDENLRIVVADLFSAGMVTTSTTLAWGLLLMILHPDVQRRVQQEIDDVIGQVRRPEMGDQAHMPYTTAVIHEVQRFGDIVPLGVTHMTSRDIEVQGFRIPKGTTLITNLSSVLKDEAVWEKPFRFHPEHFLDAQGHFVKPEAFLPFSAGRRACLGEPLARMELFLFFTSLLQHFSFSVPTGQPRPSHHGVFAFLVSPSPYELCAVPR
A short description of data set [6]: Metabolic stability of the compound in mouse liver microsomes assessed as parent compound remaining measured after 30 mins. To be noted: read-out: Stability. It counts as ADME, Microsome. On the technique in general: Microsomes from liver hold many membrane-bound enzymes, among them those of drug oxidation.
Data set [7] is described as follows: Metabolic stability of the compound in human plasma assessed as parent compound remaining measured after 30 mins. It counts as ADME, cell-free. Particulars: read-out: Stability.
For data set [8], the target named is T2, Nuclear factor erythroid 2-related factor 2 (Mus musculus) (UniProt Q60795).
T2 sequence (whole entry): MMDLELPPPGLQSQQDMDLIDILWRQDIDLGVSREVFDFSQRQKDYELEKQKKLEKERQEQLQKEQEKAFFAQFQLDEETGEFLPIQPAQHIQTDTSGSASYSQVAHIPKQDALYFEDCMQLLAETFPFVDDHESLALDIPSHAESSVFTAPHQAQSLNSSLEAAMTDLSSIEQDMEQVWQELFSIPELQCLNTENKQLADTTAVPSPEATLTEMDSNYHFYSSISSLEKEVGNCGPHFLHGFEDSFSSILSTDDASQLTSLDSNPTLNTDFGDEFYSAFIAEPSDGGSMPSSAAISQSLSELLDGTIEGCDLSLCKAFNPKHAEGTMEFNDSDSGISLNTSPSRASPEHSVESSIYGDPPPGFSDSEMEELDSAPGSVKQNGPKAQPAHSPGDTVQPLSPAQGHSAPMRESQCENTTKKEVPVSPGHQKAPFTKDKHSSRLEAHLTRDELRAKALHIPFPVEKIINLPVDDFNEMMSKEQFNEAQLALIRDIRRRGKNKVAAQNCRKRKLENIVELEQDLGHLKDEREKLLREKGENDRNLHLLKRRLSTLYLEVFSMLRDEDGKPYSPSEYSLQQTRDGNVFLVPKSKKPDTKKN
The data set can be described thus: Activation of Nrf2 in mouse BV-2 cells assessed as increase in Nrf2 level in whole cell lysates measured after 3 hrs by immunoblot analysis. It counts as subcellular. Particulars: filed as activator, dose 0.01-3 µM.

Data set [9] addresses T2, Nuclear factor erythroid 2-related factor 2 (Mus musculus). The data set can be described thus: Activation of Nrf2 in mouse BV-2 cells assessed as increase in Nrf2 level in whole cell lysates at 3 uM measured after 48 hrs by immunoblot analysis. It counts as subcellular. (In general: In western blotting, separated proteins are transferred to a membrane and probed.)
Data set [10] has the same target. As to the kind of experiment: Activation of Nrf2 in mouse BV-2 cells assessed as increase in Nrf2 nuclear translocation at 3 uM measured upto 9 hrs by immunoblot analysis relative to control. It counts as subcellular. To be noted: Nucleus.
The target is the same in data set [11]. The data set can be described thus: Activation of Nrf2 in mouse BV-2 cells assessed as increase in HO-1 mRNA expression incubated for 3 hrs by qRT-PCR analysis. It counts as cell-based. To be noted: filed as activator, dose 0.01-3 µM.
Data set [12] shares this target. The data set can be described thus: Activation of Nrf2 in mouse BV-2 cells assessed as increase in Gclm mRNA expression incubated for 3 hrs by qRT-PCR analysis. It counts as cell-based. Particulars: filed as activator, dose 0.01-3 µM. A general note: Quantitative PCR measures a nucleic acid by following its amplification.
Data set [13] has the same target. As to the kind of experiment: Activation of Nrf2 in mouse BV-2 cells assessed as increase in HO-1 protein expression at 3 uM measured after 9 hrs by immunoblot analysis. It counts as cell-based. Particulars: filed as activator.
For data set [14] the target is unchanged. As to the kind of experiment: Activation of Nrf2 in mouse BV-2 cells assessed as increase in GCLM protein expression at 3 uM measured after 12 hrs by immunoblot analysis. It counts as cell-based. Particulars: filed as activator.
Data set [15] shares this target. The data set can be described thus: Activation of Nrf2 in mouse BV-2 cells assessed as increase in GCLM protein expression measured after 12 hrs by immunoblot analysis. Particulars: filed as activator, dose 0.01-3 µM. It counts as cell-based.
Data set [16] deals with BV-2. The data set can be described thus: Antiinflammatory activity against LPS-induced mouse BV-2 cells assessed as inhibition of NOS2 mRNA expression at 0.1 to 3 uM pretreated for 6 hrs followed by LPS stimulation for 6 hrs by qRT-PCR analysis. It counts as functional, cell-based. To be noted: dose 0.1-3 µM, time 12.0 hrs.
Data set [17] deals with BV-2. The data set can be described thus: Antiinflammatory activity against LPS-induced mouse BV-2 cells assessed as inhibition of IL-6 mRNA expression at 0.03 to 3 uM pretreated for 6 hrs followed by LPS stimulation for 6 hrs by qRT-PCR analysis. It counts as functional, cell-based. Particulars: dose 0.03-3 µM, time 12.0 hrs.
Data set [18] relates to BV-2. The data set can be described thus: Antiinflammatory activity against LPS-induced mouse BV-2 cells assessed as inhibition of IL-6 production at 0.1 to 3 uM pretreated for 6 hrs followed by LPS stimulation for 24 hrs by ELISA. It counts as functional, cell-based. To be noted: dose 0.1-3 µM, time 30.0 hrs.
A short description of data set [19]: Toxicity against C57BL/6N mouse at 1000 mg/kg, po administered as single dose. It counts as organism-based. Particulars: in vivo.
The subject of data set [20] is Mus musculus. As to the kind of experiment: Antiinflammatory activity against LPS-induced neuroinflammation C57BL/6N mouse model assessed as reduction of glial cell reactivity by measuring reduction in IBA1 expression in hippocampus CA1 region at 20 mg/kg/day, po administered for 3 days followed by LPS administration for 7 days by immunofluorescence staining based analysis. It counts as functional, organism-based. To be noted: time 10.0 day.

Data set [21] has as its system Mus musculus. The data set can be described thus: Antiinflammatory activity against LPS-induced neuroinflammation C57BL/6N mouse model assessed as reduction of glial cell reactivity by measuring reduction in IBA1 expression in hippocampus CA3 region at 20 mg/kg/day, po administered for 3 days followed by LPS administration for 7 days by immunofluorescence staining based analysis. Particulars: time 10.0 day. It counts as functional, organism-based.

Data set [22] concerns Mus musculus. As to the kind of experiment: Antiinflammatory activity against LPS-induced neuroinflammation C57BL/6N mouse model assessed as reduction of glial cell reactivity by measuring reduction in IBA1 expression in dentate gyrus at 20 mg/kg/day, po administered for 3 days followed by LPS administration for 7 days by immunofluorescence staining based analysis. It counts as functional, organism-based. To be noted: time 10.0 day.

Active and inactive are the calls of the source. The calls are words filed in the database; no cut-off is given here.

Consider `COc1cccnc1S(=O)(=O)/C=C/c1ncccc1Cl`, for which the activity at 10 µM is 84.9% in data set [1]; 77.1% in data set [2]; more than 99% in data set [3]; 74.7% in data set [4]; more than 99% in [5]. For the same molecule, the remaining at 0.5 h in data set [6] is 61%; in data set [7], 92.8%. Also, the Activity entry in data set [8] is “Dose-Dependent Effect”; in [11], “Dose-Dependent Effect”; in [12], “Dose-Dependent Effect”; in data set [15], “Dose-Dependent Effect”; in data set [19] it was “Non-Toxic”. For the same molecule, the Activity result in [9] was “inactive”. Moreover, the fold change (FC) in data set [10] was more than 7. Moreover, the Activity entry in data set [13], in data set [14], in data set [16], in data set [17], in data set [18] and in data set [20] was “Active” in each case. In addition, the Activity entry in [21] and in data set [22] was “Active” each time.
